Values of other authors in publication PMC9344054, “Studies on Chemical Characterization of Ginkgo Amillaria Oral Solution and Its Drug–Drug Interaction With Piceatannol 3′-O-β-D-Glucopyranoside for Injection” (Frontiers in Pharmacology, 2022).

Columns and labels:
[1] = tested on: most human UGTs, including UGT1A1, 1A3, 1A4, 1A6, 1A7, 1A8, and 1A9; parameters: method as in Lv et al., 2018; conditions: UGT1A1, 1A3, 1A4, 1A6, 1A7, 1A8, 1A9; ref Lv et al., 2018; cited from earlier work
P-glycoprotein = tested on: P-glycoprotein; parameters: method as in An et al., 2011; Palatini and De Martin, 2016; conditions: previous studies; ref An et al., 2011; Palatini and De Martin, 2016; cited from earlier work
[2] = tested on: breast cancer resistance protein; parameters: method as in An et al., 2011; Palatini and De Martin, 2016; conditions: ref An et al., 2011; Palatini and De Martin, 2016; cited from earlier work
human hepatic UGT1A1 = tested on: human hepatic UGT1A1; parameters: method as in Cao et al., 2017; conditions: in vitro; ref Cao et al., 2017; cited from earlier work
human hepatic UGT1A4 = tested on: human hepatic UGT1A4; parameters: method as in Cao et al., 2017; conditions: in vitro; ref Cao et al., 2017; cited from earlier work
[3] = parameters: method as in Zhao et al., 2006; conditions: pretreatment of GBE 100 mg kg−1 for 10 days; ref Zhao et al., 2006; cited from earlier work
UGT1A3 = tested on: UGT1A3; parameters: method as in Zhang et al., 2021; conditions: ref Zhang et al., 2021; cited from earlier work
UGT1A1 = tested on: UGT1A1; parameters: method as in Zhang et al., 2021; conditions: ref Zhang et al., 2021; cited from earlier work
UGT1A6 = tested on: UGT1A6; parameters: method as in Zhang et al., 2021; conditions: ref Zhang et al., 2021; cited from earlier work
UGT1A9 = tested on: UGT1A9; parameters: method as in Zhang et al., 2021; conditions: ref Zhang et al., 2021; cited from earlier work
[4] = parameters: method as in Fan et al., 2009; conditions: ten healthy male volunteers, ref Fan et al., 2009, cited from earlier work

O=c1cc(-c2ccc(O)c(-c3c(O)cc(O)c4c(=O)cc(-c5ccc(O)cc5)oc34)c2)oc2cc(O)cc(O)c12 [amentoflavone]
inhibition toward most human UGTs [1]: strong inhibition

O=c1c(O)c(-c2ccc(O)cc2)oc2cc(O)cc(O)c12 [kaempferol]
inhibition of the P-glycoprotein-mediated efflux of ritonavir (P-glycoprotein): remarkable inhibition
inhibition of breast cancer resistance protein [2]: inhibitor

O=c1cc(-c2ccc(O)c(O)c2)oc2cc(O)cc(O)c12 [luteolin]
inhibition of human hepatic UGT1A1 (human hepatic UGT1A1): inhibited
inhibition of human hepatic UGT1A4 (human hepatic UGT1A4): inhibited

CC(C)NCC(O)COc1cccc2ccccc12 (stereo not shown) [propranolol]
change of AUC of propranolol [3]: significantly reduce
change of C max of propranolol [3]: significantly reduce

O=c1c(O)c(-c2ccc(O)c(O)c2)oc2cc(O)cc(O)c12 [quercetin]
inhibition of UGT1A3 (UGT1A3): moderate inhibitor
inhibition of UGT1A1 (UGT1A1): moderate inhibitor
inhibition of UGT1A6 (UGT1A6): weak inhibitor
inhibition of human hepatic UGT1A1 (human hepatic UGT1A1): inhibited
inhibition of UGT1A9 (UGT1A9): strong inhibitor
inhibition of human hepatic UGT1A4 (human hepatic UGT1A4): inhibited

CC(C)(C)NCC(O)COc1ccc(NC(=O)NC2CCCCC2)cc1 (stereo not shown) [talinolol]
increase of AUC0-24 of talinolol ([4]; repeated ingestion of GBE): 26%
increase of C max of talinolol ([4]; repeated ingestion of GBE): 36%
effect on pharmacokinetics of talinolol ([4]; single dose of GBE orally): did not affect
